According to patent publication US20230295119A1, “SUBSTITUTED PYRIDINES FOR THE TREATMENT OF INFLAMMATORY DISEASES” (GOSSAMER BIO SERVICES, INC., priority 2020, published 2023):

Experiments:
TYK2 JH2 domain = TYK2 JH2 domain (Homo sapiens (Human), UniProt P29597); test: TYK2 JH2 NanoBRET assay; format: binding; conditions: Table 20, read-out: TYK2 IC50
Method in brief: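 HEK293T cells transiently expressing NanoLuc-TYK2 JH2 fusion, incubated 2 h with compound and NanoBRET K10 tracer (0.5 µM final). Target engagement read as acceptor/donor BRET ratio after Nano-Glo substrate plus extracellular NanoLuc inhibitor.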

human JAK1 = human JAK1 (Homo sapiens (Human), UniProt P23458); test: JAK1 TR-FRET kinase assay; format: biochemical; conditions: TR-FRET, JAK1 2.5 nM
human JAK2 = human JAK2 (Homo sapiens (Human), UniProt O60674); test: JAK2 TR-FRET kinase assay; format: biochemical; conditions: JAK2 0.025 nM
human JAK3 = human JAK3 (Homo sapiens (Human), UniProt P52333); test: JAK3 TR-FRET kinase assay; format: biochemical; conditions: JAK3 0.0125 nM
Sequence of human JAK3 (P52333 whole entry): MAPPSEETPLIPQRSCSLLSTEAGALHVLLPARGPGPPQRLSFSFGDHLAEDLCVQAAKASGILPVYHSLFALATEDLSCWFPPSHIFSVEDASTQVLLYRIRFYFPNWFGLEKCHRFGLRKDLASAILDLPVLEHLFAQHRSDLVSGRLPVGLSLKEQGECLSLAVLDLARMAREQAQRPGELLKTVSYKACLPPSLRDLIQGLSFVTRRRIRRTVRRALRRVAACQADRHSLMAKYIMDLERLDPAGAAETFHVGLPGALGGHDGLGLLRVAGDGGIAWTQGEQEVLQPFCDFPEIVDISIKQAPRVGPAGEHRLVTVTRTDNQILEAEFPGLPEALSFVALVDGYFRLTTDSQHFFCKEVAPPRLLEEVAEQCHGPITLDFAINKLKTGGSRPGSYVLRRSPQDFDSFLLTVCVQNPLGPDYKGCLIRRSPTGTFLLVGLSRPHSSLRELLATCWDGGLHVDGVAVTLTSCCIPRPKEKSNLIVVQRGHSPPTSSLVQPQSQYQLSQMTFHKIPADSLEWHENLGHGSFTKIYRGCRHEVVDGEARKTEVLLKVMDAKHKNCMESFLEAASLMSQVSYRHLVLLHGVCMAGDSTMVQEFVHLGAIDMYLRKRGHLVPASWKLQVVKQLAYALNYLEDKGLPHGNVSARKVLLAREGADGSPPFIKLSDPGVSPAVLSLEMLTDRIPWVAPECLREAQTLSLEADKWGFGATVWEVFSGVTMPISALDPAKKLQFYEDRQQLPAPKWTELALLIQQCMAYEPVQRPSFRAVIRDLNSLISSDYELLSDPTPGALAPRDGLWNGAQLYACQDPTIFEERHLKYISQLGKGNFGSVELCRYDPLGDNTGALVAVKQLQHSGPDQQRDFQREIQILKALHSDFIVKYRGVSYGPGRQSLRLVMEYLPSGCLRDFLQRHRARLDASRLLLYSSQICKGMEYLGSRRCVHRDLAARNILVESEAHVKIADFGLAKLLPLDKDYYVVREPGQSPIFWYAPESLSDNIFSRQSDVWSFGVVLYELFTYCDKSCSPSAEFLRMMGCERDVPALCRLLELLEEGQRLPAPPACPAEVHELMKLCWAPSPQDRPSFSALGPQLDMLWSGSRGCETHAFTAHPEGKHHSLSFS

Sequence of human JAK2 (O60674 whole entry): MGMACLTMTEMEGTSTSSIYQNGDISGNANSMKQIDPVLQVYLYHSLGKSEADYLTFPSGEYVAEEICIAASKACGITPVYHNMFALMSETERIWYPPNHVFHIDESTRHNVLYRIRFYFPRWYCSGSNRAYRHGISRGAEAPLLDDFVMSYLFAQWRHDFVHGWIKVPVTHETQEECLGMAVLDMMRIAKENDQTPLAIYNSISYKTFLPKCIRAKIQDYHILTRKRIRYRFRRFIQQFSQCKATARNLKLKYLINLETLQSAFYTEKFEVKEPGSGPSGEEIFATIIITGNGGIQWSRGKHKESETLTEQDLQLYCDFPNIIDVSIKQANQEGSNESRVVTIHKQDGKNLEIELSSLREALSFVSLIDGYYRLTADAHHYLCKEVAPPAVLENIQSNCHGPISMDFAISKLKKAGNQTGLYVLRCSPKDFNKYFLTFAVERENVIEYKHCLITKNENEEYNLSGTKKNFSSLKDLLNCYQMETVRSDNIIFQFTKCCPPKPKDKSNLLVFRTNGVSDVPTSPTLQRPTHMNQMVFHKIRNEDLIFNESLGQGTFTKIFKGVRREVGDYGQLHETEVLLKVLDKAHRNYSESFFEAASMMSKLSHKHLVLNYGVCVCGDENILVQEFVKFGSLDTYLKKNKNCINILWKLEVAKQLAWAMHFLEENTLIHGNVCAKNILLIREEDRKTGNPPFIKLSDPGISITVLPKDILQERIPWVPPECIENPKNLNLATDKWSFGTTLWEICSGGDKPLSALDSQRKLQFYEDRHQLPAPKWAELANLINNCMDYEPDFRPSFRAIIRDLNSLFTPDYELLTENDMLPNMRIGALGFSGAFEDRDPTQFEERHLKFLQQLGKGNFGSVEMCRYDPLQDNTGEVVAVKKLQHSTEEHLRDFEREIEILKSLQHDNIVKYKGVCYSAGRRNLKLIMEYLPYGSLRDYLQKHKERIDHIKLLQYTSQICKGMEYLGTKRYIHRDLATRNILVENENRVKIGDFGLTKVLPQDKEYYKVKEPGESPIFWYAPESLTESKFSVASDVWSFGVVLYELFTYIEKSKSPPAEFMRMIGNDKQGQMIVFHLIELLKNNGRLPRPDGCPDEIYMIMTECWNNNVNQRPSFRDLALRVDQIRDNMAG
Sequence of human JAK1 (P23458 whole entry): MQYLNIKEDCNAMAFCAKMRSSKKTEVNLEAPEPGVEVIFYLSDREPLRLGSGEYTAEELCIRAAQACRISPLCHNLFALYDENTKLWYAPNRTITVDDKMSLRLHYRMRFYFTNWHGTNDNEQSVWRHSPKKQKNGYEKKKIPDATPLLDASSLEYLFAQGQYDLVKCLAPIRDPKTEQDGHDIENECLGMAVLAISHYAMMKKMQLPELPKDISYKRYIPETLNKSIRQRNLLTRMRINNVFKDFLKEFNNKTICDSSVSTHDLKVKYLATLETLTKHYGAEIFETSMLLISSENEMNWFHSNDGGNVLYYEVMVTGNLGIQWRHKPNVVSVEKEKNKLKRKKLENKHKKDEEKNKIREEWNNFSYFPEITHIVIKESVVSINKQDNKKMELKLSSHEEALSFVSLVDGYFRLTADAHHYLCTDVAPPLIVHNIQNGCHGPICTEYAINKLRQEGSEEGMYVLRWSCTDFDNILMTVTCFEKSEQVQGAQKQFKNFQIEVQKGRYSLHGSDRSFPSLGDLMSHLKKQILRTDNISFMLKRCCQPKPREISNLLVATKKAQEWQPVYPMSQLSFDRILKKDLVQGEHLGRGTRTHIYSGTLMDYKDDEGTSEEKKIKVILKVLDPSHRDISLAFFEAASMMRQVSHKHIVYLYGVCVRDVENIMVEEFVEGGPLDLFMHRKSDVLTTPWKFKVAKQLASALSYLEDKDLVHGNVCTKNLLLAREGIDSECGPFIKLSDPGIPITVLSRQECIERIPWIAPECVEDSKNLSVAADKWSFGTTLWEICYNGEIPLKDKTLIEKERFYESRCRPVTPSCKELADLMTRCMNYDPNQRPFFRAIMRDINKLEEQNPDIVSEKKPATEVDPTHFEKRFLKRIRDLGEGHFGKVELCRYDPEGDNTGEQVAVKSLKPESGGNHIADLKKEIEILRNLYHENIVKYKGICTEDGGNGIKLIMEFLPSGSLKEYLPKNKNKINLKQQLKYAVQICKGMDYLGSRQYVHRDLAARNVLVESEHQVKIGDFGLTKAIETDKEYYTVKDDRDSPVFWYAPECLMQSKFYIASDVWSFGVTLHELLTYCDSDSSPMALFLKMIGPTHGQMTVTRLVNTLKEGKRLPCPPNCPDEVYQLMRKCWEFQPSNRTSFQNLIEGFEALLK
Sequence of TYK2 JH2 domain (P29597 589-875): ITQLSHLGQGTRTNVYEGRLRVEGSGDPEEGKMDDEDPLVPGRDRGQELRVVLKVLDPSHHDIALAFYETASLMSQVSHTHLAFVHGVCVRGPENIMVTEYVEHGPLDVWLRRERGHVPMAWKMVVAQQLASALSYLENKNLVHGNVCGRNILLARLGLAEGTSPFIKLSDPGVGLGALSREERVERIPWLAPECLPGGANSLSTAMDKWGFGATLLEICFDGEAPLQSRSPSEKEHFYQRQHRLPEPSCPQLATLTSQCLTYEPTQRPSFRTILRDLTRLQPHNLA

| Compound | IC50 (TYK2 JH2 domain) [nM] | IC50 (human JAK1) [nM] | IC50 (human JAK2) [nM] | IC50 (human JAK3) [nM] |
| --- | --- | --- | --- | --- |
| CCC(=O)c1cnc(Nc2nc(CN(C)C)ccc2F)cc1Nc1cccc(-c2ncn(C)n2)c1OC [Compound 9UUUU] | 50 to 500 | ≥ 500 | ≥ 500 | ≥ 500 |
| CCC(=O)c1cnc(Nc2ccc(CN3C[C@@H](C)O[C@@H](C)C3)cn2)cc1Nc1cccc(-c2ncn(C)n2)c1OC [Compound 9UU] | < 5 | ≥ 500 | ≥ 500 | ≥ 500 |
| CCC(=O)c1cnc(Nc2ccc(CN3CCS(=O)(=O)CC3)cn2)cc1Nc1cccc(-c2ncn(C)n2)c1OC [Compound 9VV] | < 5 | ≥ 500 | 50 to 500 | 50 to 500 |
| CCC(=O)c1cnc(Nc2ccc(CN3CCS(=N)(=O)CC3)cn2)cc1Nc1cccc(-c2ncn(C)n2)c1OC [Compound 9WW] | 5 to 50 | ≥ 500 | 50 to 500 | 50 to 500 |
| [2H]C([2H])([2H])N(Cc1ccc(Nc2cc(Nc3cccc(-c4ncn(C)n4)c3OC)c(C(=O)CC)cn2)nc1)C([2H])([2H])[2H] [Compound 9W] | < 5 | ≥ 500 | ≥ 500 | ≥ 500 |
| CCC(=O)c1cnc(Nc2ccc(CN3C4COCC3C4)cn2)cc1Nc1cccc(-c2ncn(C)n2)c1OC [Compound 9XX] | < 5 | ≥ 500 | 50 to 500 | 50 to 500 |
| CCC(=O)c1cnc(Nc2ccc(CN3CC4(COC4)C3)cn2)cc1Nc1cccc(-c2ncn(C)n2)c1OC [Compound 9YY] | < 5 | ≥ 500 | ≥ 500 | 50 to 500 |
| CCC(=O)c1cnc(Nc2ccc(CN3CC4(CCO4)C3)cn2)cc1Nc1cccc(-c2ncn(C)n2)c1OC [Compound 9ZZ] | < 5 | ≥ 500 | ≥ 500 | ≥ 500 |
| CCC(=O)c1cnc(Nc2ccc(OCCN3CCCC3)cn2)cc1Nc1cccc(-c2ncn(C)n2)c1OC [Compound 10A, 1-(4-((2-methoxy-3-(1-methyl-1H-1,2,4-triazol-3-yl)phenyl)amino)-6-((5-(2-(pyrrolidin-1-yl)ethoxy)pyridin-2-yl)amino)pyridin-3-yl)propan-1-one] | < 5 | ≥ 500 | ≥ 500 | ≥ 500 |
| CCC(=O)c1cnc(Nc2ccc(CCN(C)C)cn2)cc1Nc1cccc(-c2ncn(C)n2)c1OC [Compound 11A, 1-(6-((5-(2-(dimethylamino)ethyl)pyridin-2-yl)amino)-4-((2-methoxy-3-(1-methyl-1H-1,2,4-triazol-3-yl)phenyl)amino)pyridin-3-yl)propan-1-one] | < 5 | ≥ 500 | ≥ 500 | ≥ 500 |
| CCC(=O)c1cnc(Nc2ccc(CCN3CCCC3)cn2)cc1Nc1cccc(-c2ncn(C)n2)c1OC [Compound 11C] | < 5 | ≥ 500 | ≥ 500 | ≥ 500 |
| CCC(=O)c1cnc(Nc2ccc(CCN3CCCC3)nn2)cc1Nc1cccc(-c2ncn(C)n2)c1OC [Compound 11E] | 50 to 500 | ≥ 500 | ≥ 500 | ≥ 500 |
| CCC(=O)c1cnc(Nc2cc(CCN3CCCC3)ncn2)cc1Nc1cccc(-c2ncn(C)n2)c1OC [Compound 11G] | < 5 | ≥ 500 | ≥ 500 | 50 to 500 |
| CCC(=O)c1cnc(Nc2ccc(CS(C)(=O)=O)cn2)cc1Nc1cccc(-c2ncn(C)n2)c1OC [Compound 13A, 1-(4-((2-methoxy-3-(1-methyl-1H-1,2,4-triazol-3-yl)phenyl)amino)-6-((5-((methylsulfonyl)methyl)pyridin-2-yl)amino)pyridin-3-yl)propan-1-one] | < 5 | ≥ 500 | 50 to 500 | 50 to 500 |
| CCC(=O)c1cnc(Nc2ncc(CS(C)(=O)=O)cc2F)cc1Nc1cccc(-c2ncn(C)n2)c1OC [Compound 13AA] | 5 to 50 | ≥ 500 | ≥ 500 | ≥ 500 |
| CCC(=O)c1cnc(Nc2ccc(S(=O)(=O)NC)cn2)cc1Nc1cccc(-c2ncn(C)n2)c1OC [Compound 13C] | 5 to 50 | ≥ 500 | ≥ 500 | ≥ 500 |
| CCC(=O)c1cnc(Nc2ccc(S(=O)(=O)N3CCOCC3)cn2)cc1Nc1cccc(-c2ncn(C)n2)c1OC [Compound 13E] | < 5 | ≥ 500 | ≥ 500 | ≥ 500 |
| CCC(=O)c1cnc(Nc2ccc(CS(C)(=N)=O)cn2)cc1Nc1cccc(-c2ncn(C)n2)c1OC (stereo not shown) [Compound 13F] | 5 to 50 | ≥ 500 | ≥ 500 | ≥ 500 |
| CCC(=O)c1cnc(Nc2ccc(S(=O)(=O)C3CC3)cn2)cc1Nc1cccc(-c2ncn(C)n2)c1OC [Compound 13H] | < 5 | ≥ 500 | 50 to 500 | 50 to 500 |
| CCC(=O)c1cnc(Nc2ccc(S(C)(=O)=O)cn2)cc1Nc1nccc(-c2ncn(C)n2)c1OC [Compound 13I] | < 5 | ≥ 500 | ≥ 500 | ≥ 500 |

Continued, values first:

| IC50 (TYK2 JH2 domain) [nM] | IC50 (human JAK1) [nM] | IC50 (human JAK2) [nM] | IC50 (human JAK3) [nM] | Compound |
| --- | --- | --- | --- | --- |
| 5 to 50 | ≥ 500 | ≥ 500 | ≥ 500 | CCC(=O)c1cnc(Nc2cnc(C(NC)C(F)(F)F)cn2)cc1Nc1cccc(-c2ncn(C)n2)c1OC (stereo not shown) [Compound 9UUU] |
| < 5 | ≥ 500 | ≥ 500 | ≥ 500 | CCC(=O)c1cnc(Nc2ccc(CN(C)CC)cn2)cc1Nc1cccc(-c2ncn(C)n2)c1OC [Compound 9U] |
| 5 to 50 | ≥ 500 | ≥ 500 | ≥ 500 | CCC(=O)c1cnc(Nc2cnc(C(N(C)C)C(F)(F)F)cn2)cc1Nc1cccc(-c2ncn(C)n2)c1OC (stereo not shown) [Compound 9VVV] |
| < 5 | ≥ 500 | ≥ 500 | ≥ 500 | CCC(=O)c1cnc(Nc2ccc(C(N(C)C)C(F)(F)F)cn2)cc1Nc1cccc(-c2ncn(C)n2)c1OC (stereo not shown) [Compound 9V] |
| 5 to 50 | ≥ 500 | ≥ 500 | ≥ 500 | CCC(=O)c1cnc(Nc2cnc(CN(C)CC(F)F)cn2)cc1Nc1cccc(-c2ncn(C)n2)c1OC [Compound 9WWW] |
| 5 to 50 | ≥ 500 | ≥ 500 | ≥ 500 | CCC(=O)c1cnc(Nc2cnc(CN(C)CC(F)(F)F)cn2)cc1Nc1cccc(-c2ncn(C)n2)c1OC [Compound 9XXX] |
| 5 to 50 | ≥ 500 | ≥ 500 | ≥ 500 | CCC(=O)c1cnc(Nc2ccc(CN(C)CC(F)(F)F)cn2)cc1Nc1cccc(-c2ncn(C)n2)c1OC [Compound 9X] |
| 5 to 50 | ≥ 500 | ≥ 500 | ≥ 500 | CCC(=O)c1cnc(Nc2cnc(C3(N)CC3)cn2)cc1Nc1cccc(-c2ncn(C)n2)c1OC [Compound 9YYY] |
| 5 to 50 | ≥ 500 | ≥ 500 | ≥ 500 | CCC(=O)c1cnc(Nc2ccc(CN(C)CC(F)F)cn2)cc1Nc1cccc(-c2ncn(C)n2)c1OC [Compound 9Y] |
| 5 to 50 | ≥ 500 | ≥ 500 | ≥ 500 | CCC(=O)c1cnc(Nc2cnc(C3(NC)CC3)cn2)cc1Nc1cccc(-c2ncn(C)n2)c1OC [Compound 9ZZZ] |
| 5 to 50 | ≥ 500 | 50 to 500 | ≥ 500 | CCC(=O)c1cnc(Nc2ccc(C(C)NCC(F)(F)F)cn2)cc1Nc1cccc(-c2ncn(C)n2)c1OC (stereo not shown) [Compound 9Z] |
| 5 to 50 | ≥ 500 | ≥ 500 | ≥ 500 | CCC(=O)c1cnc(Nc2ccc(CCNC)cn2)cc1Nc1cccc(-c2ncn(C)n2)c1OC [Compound 11B] |
| 5 to 50 | ≥ 500 | ≥ 500 | ≥ 500 | CCC(=O)c1cnc(Nc2ccc(CCN(C)C)nn2)cc1Nc1cccc(-c2ncn(C)n2)c1OC [Compound 11D] |
| < 5 | ≥ 500 | ≥ 500 | ≥ 500 | CCC(=O)c1cnc(Nc2cc(CCN(C)C)ncn2)cc1Nc1cccc(-c2ncn(C)n2)c1OC [Compound 11F] |
| 50 to 500 | ≥ 500 | ≥ 500 | ≥ 500 | CCC(=O)c1cnc(Nc2cnc(CCNC)cn2)cc1Nc1cccc(-c2ncn(C)n2)c1OC [Compound 11H] |
| 5 to 50 | ≥ 500 | ≥ 500 | ≥ 500 | CCC(=O)c1cnc(Nc2cnc(CCN(C)C)cn2)cc1Nc1cccc(-c2ncn(C)n2)c1OC [Compound 11I] |
| 5 to 50 | ≥ 500 | ≥ 500 | ≥ 500 | CCC(=O)c1cnc(Nc2cnc(CCN3CCCC3)cn2)cc1Nc1cccc(-c2ncn(C)n2)c1OC [Compound 11J] |
| < 5 | ≥ 500 | ≥ 500 | ≥ 500 | CCC(=O)c1cnc(Nc2ccc(S(C)(=O)=O)cn2)cc1Nc1cccc(-c2ncn(C)n2)c1OC [Compound 12A, 1-(4-((2-methoxy-3-(1-methyl-1H-1,2,4-triazol-3-yl)phenyl)amino)-6-((5-(methylsulfonyl)pyridin-2-yl)amino)pyridin-3-yl)propan-1-one] |
| < 5 | ≥ 500 | ≥ 500 | ≥ 500 | CCC(=O)c1cnc(Nc2ccc(S(N)(=O)=O)cn2)cc1Nc1cccc(-c2ncn(C)n2)c1OC [Compound 13B] |
| < 5 | ≥ 500 | ≥ 500 | ≥ 500 | CCC(=O)c1cnc(Nc2ccc(S(=O)(=O)CC)cn2)cc1Nc1cccc(-c2ncn(C)n2)c1OC [Compound 13G] |
